{"source": "patent US10175256B2", "about": "“Compositions and methods utilizing lysophosphatidylcholine scaffolds” (National University Of Singapore, priority 2013, dated 2019)", "tested_on": "mouse Mfsd2a", "test": "Cell-based free fatty acid transport/uptake in Mfsd2a expressing HEK293 cells (mass spectrometry, TLC; Table 1)", "settings": "mock HEK293 cells, 100 uM fatty acid/BSA overnight", "outline": "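HEK293 cells expressing mouse Mfsd2a, or mock controls, were incubated overnight with 100 μM BSA-complexed fatty acids. Lipids were extracted in hexane:isopropanol (3:2) and phospholipid species quantified by HPLC-MS/MS against spiked internal standards. For TLC, cells received 100 μM [^14C]-oleate overnight, and phospholipids and neutral lipids were resolved.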", "note": "“And” between values parts separate entries of the source, which are not always exact repeats. Equal entries are not always repeated."}
{"smiles": "CCCCCCCCCCCCCCCC(=O)O", "note": "[Palmitic acid]", "values": [{"measurement": "PE34:2 in total phospholipid", "result": "0.7398 mol percent and 0.9433 mol percent and 0.7927 mol percent"}, {"measurement": "PE34p:1 in total phospholipid", "result": "0.971 mol percent and 1.042 mol percent and 0.8107 mol percent"}, {"measurement": "PE34p:2 in total phospholipid", "result": "0.2589 mol percent and 0.2653 mol percent and 0.2702 mol percent"}, {"measurement": "PE36:1 in total phospholipid", "result": "1.322 mol percent and 1.425 mol percent and 1.18 mol percent"}, {"measurement": "PE36:2 in total phospholipid", "result": "1.822 mol percent and 1.936 mol percent and 1.702 mol percent"}, {"measurement": "PE36:3 in total phospholipid", "result": "0.4809 mol percent and 0.3636 mol percent and 0.4143 mol percent"}, {"measurement": "PE36:4 in total phospholipid", "result": "0.2219 mol percent and 0.2555 mol percent and 0.1711 mol percent"}, {"measurement": "PE36p:1 in total phospholipid", "result": "0.4994 mol percent and 0.3931 mol percent and 0.3603 mol percent"}, {"measurement": "PE36p:2 in total phospholipid", "result": "0.4531 mol percent and 0.5896 mol percent and 0.6485 mol percent"}, {"measurement": "PE36p:3 in total phospholipid", "result": "0.7305 mol percent and 0.7272 mol percent and 0.9548 mol percent"}, {"measurement": "PE36p:4 in total phospholipid", "result": "0.9617 mol percent and 0.9433 mol percent and 0.9458 mol percent"}, {"measurement": "PE38:1 in total phospholipid", "result": "0.3791 mol percent and 0.3046 mol percent and 0.3063 mol percent"}, {"measurement": "PE38:2 in total phospholipid", "result": "0.2589 mol percent and 0.2555 mol percent and 0.3423 mol percent"}, {"measurement": "PE38:3 in total phospholipid", "result": "0.6381 mol percent and 0.7959 mol percent and 0.5495 mol percent"}, {"measurement": "PE38:4 in total phospholipid", "result": "0.8693 mol percent and 0.9237 mol percent and 0.8647 mol percent"}, {"measurement": "PE38:5 in total phospholipid", "result": "0.3791 mol percent and 0.5405 mol percent and 0.4684 mol percent"}, {"measurement": "PE38:6 in total phospholipid", "result": "0.1665 mol percent and 0.1376 mol percent and 0.1531 mol percent"}, {"measurement": "PE38p:0 in total phospholipid", "result": "0.05548 mol percent and 0.08844 mol percent and 0.09008 mol percent"}, {"measurement": "PE38p:1 in total phospholipid", "result": "0.2034 mol percent and 0.226 mol percent and 0.2432 mol percent"}, {"measurement": "PE38p:2 in total phospholipid", "result": "0.2312 mol percent and 0.2948 mol percent and 0.3423 mol percent"}, {"measurement": "PE38p:3 in total phospholipid", "result": "0.7768 mol percent and 0.8352 mol percent and 0.7656 mol percent"}, {"measurement": "PE38p:4 in total phospholipid", "result": "1.036 mol percent and 0.8549 mol percent and 0.9998 mol percent"}, {"measurement": "PE38p:5 in total phospholipid", "result": "0.6381 mol percent and 0.7272 mol percent and 0.7026 mol percent"}, {"measurement": "PE38p:6 in total phospholipid", "result": "0.971 mol percent and 1.238 mol percent and 1.108 mol percent"}, {"measurement": "PE40:3 in total phospholipid", "result": "0.1202 mol percent and 0.1179 mol percent and 0.1621 mol percent"}, {"measurement": "PE40:5 in total phospholipid", "result": "0.1572 mol percent and 0.1376 mol percent and 0.2432 mol percent"}, {"measurement": "PE40:6 in total phospholipid", "result": "0.3052 mol percent and 0.3832 mol percent and 0.2702 mol percent"}, {"measurement": "PE40p:4 in total phospholipid", "result": "0.2959 mol percent and 0.2162 mol percent and 0.2973 mol percent"}, {"measurement": "PE40p:5 in total phospholipid", "result": "0.2312 mol percent and 0.285 mol percent and 0.3153 mol percent"}, {"measurement": "PE40p:6 in total phospholipid", "result": "0.5271 mol percent and 0.7272 mol percent and 0.6485 mol percent"}, {"measurement": "PE42p:4 in total phospholipid", "result": "0.07398 mol percent and 0.05896 mol percent and 0.08107 mol percent"}, {"measurement": "PE42p:6 in total phospholipid", "result": "0.1572 mol percent and 0.167 mol percent and 0.1441 mol percent"}, {"measurement": "PE42p:7 in total phospholipid", "result": "0.1942 mol percent and 0.1277 mol percent and 0.1621 mol percent"}, {"measurement": "PI 32:1 in total phospholipid", "result": "0.01674 mol percent and 0.0186 mol percent and 0.01785 mol percent"}, {"measurement": "PI 32:2 in total phospholipid", "result": "0.001586 mol percent and 0.001469 mol percent and 0.001965 mol percent"}, {"measurement": "PI 34:1 in total phospholipid", "result": "0.1071 mol percent and 0.1227 mol percent and 0.1299 mol percent"}, {"measurement": "PI 34:2 in total phospholipid", "result": "0.06502 mol percent and 0.06038 mol percent and 0.07305 mol percent"}, {"measurement": "PI 36:1 in total phospholipid", "result": "0.1544 mol percent and 0.1643 mol percent and 0.1769 mol percent"}, {"measurement": "PI 36:2 in total phospholipid", "result": "0.3593 mol percent and 0.3719 mol percent and 0.3898 mol percent"}, {"measurement": "PI 36:3 in total phospholipid", "result": "0.1695 mol percent and 0.1663 mol percent and 0.1785 mol percent"}, {"measurement": "PI 36:4 in total phospholipid", "result": "0.04176 mol percent and 0.03965 mol percent and 0.0416 mol percent"}, {"measurement": "PI 38:2 in total phospholipid", "result": "0.3441 mol percent and 0.3474 mol percent and 0.3631 mol percent"}, {"measurement": "PI 38:3 in total phospholipid", "result": "0.9296 mol percent and 0.9911 mol percent and 1.026 mol percent"}, {"measurement": "PI 38:4 in total phospholipid", "result": "0.3635 mol percent and 0.3967 mol percent and 0.3998 mol percent"}, {"measurement": "PI 38:5 in total phospholipid", "result": "0.05392 mol percent and 0.0483 mol percent and 0.04815 mol percent"}, {"measurement": "PI 38:6 in total phospholipid", "result": "0.0074 mol percent and 0.009628 mol percent and 0.007698 mol percent"}, {"measurement": "PI 40:3 in total phospholipid", "result": "0.02555 mol percent and 0.02627 mol percent and 0.02801 mol percent"}, {"measurement": "PI 40:4 in total phospholipid", "result": "0.01515 mol percent and 0.01599 mol percent and 0.01196 mol percent"}, {"measurement": "PI 40:5 in total phospholipid", "result": "0.004934 mol percent and 0.004895 mol percent and 0.009172 mol percent"}, {"measurement": "PI 40:6 in total phospholipid", "result": "0.007048 mol percent and 0.006527 mol percent and 0.006715 mol percent"}, {"measurement": "PS(sum) in total phospholipid", "result": "3.034 mol percent and 2.842 mol percent and 3.239 mol percent"}, {"measurement": "PS:34:1 in total phospholipid", "result": "0.4968 mol percent and 0.4486 mol percent and 0.5434 mol percent"}, {"measurement": "PS:34:2 in total phospholipid", "result": "0.04738 mol percent and 0.04492 mol percent and 0.04867 mol percent"}, {"measurement": "PS:36:1 in total phospholipid", "result": "1.269 mol percent and 1.209 mol percent and 1.375 mol percent"}, {"measurement": "PS:36:2 in total phospholipid", "result": "0.4595 mol percent and 0.4148 mol percent and 0.4611 mol percent"}, {"measurement": "PS:36:3 in total phospholipid", "result": "0.02585 mol percent and 0.02217 mol percent and 0.0262 mol percent"}, {"measurement": "PS:36:4 in total phospholipid", "result": "0.00359 mol percent and 0.006418 mol percent and 0.006239 mol percent"}, {"measurement": "PS:38:2 in total phospholipid", "result": "0.2312 mol percent and 0.2147 mol percent and 0.2602 mol percent"}, {"measurement": "PS:38:3 in total phospholipid", "result": "0.1522 mol percent and 0.1447 mol percent and 0.1566 mol percent"}, {"measurement": "PS:38:4 in total phospholipid", "result": "0.07467 mol percent and 0.08168 mol percent and 0.07674 mol percent"}, {"measurement": "PS:40:4 in total phospholipid", "result": "0.08328 mol percent and 0.06359 mol percent and 0.073 mol percent"}, {"measurement": "PS:40:5 in total phospholipid", "result": "0.06605 mol percent and 0.06534 mol percent and 0.05865 mol percent"}, {"measurement": "PS:40:6 in total phospholipid", "result": "0.09836 mol percent and 0.1038 mol percent and 0.1248 mol percent"}, {"measurement": "PS:40:7 in total phospholipid", "result": "0.01077 mol percent and 0.01459 mol percent and 0.01435 mol percent"}, {"measurement": "Total PC + lysoPC in total phospholipid", "result": "71.06 mol percent and 69.79 mol percent and 71.05 mol percent"}, {"measurement": "Total PE + lysoPE in total phospholipid", "result": "23.19 mol percent and 24.54 mol percent and 22.75 mol percent"}, {"measurement": "Total PI + lysoPI in total phospholipid", "result": "2.715 mol percent and 2.832 mol percent and 2.956 mol percent"}]}
